Measured values published in article PMC7031696 (Cell chemical biology, 2019).

Tested on: 3D7-MR4 trophozoite parasite-infected RBCs
Assay: Metabolomic profiling (hydrophilic metabolite changes, UHPLC-MS)
Type: cell-based, Plasmodium falciparum

CN(C)Cc1ccc(-c2cc3c(-c4ccc(CN(C)C)cc4)ccnc3[nH]2)cc1.O=C(O)C(F)(F)F [MMV022224]
peptide levels (hemoglobin catabolism signature) (10 × IC50^72h, 2.5 hr, trophozoites): increased levels of peptides | Log2(fold changes) 1_3-Bisphosphoglyceric acid (metabolite 1_3-Bisphosphoglyceric acid, log2 fold change): 0.0000 | Log2(fold changes) 2-Hydroxy-2-methylbutanedioic acid (metabolite 2-Hydroxy-2-methylbutanedioic acid, log2 fold change): 0.1756 | Log2(fold changes) 2-Isopropylmalic acid (metabolite 2-Isopropylmalic acid, log2 fold change): 0.0000 | Log2(fold changes) 2-dehydro-D-gluconate (metabolite 2-dehydro-D-gluconate, log2 fold change): 0.3564 | Log2(fold changes) 2-oxo-4-methylthiobutanoate (metabolite 2-oxo-4-methylthiobutanoate, log2 fold change): 0.0000 | Log2(fold changes) 2_3-Diphosphoglyceric acid (metabolite 2_3-Diphosphoglyceric acid, log2 fold change): -0.1549 | Log2(fold changes) 3-phosphoglycerate (metabolite 3-phosphoglycerate, log2 fold change): -0.0795 | Log2(fold changes) 3-phosphoserine (metabolite 3-phosphoserine, log2 fold change): -0.1712 | Log2(fold changes) 4-Pyridoxic acid (metabolite 4-Pyridoxic acid, log2 fold change): 0.0566 | Log2(fold changes) 4-aminobutyrate (metabolite 4-aminobutyrate, log2 fold change): -0.2938 | Log2(fold changes) 4-phosphopantetheine (metabolite 4-phosphopantetheine, log2 fold change): -0.5209 | Log2(fold changes) 4-phosphopantothenate (metabolite 4-phosphopantothenate, log2 fold change): 0.0735 | Log2(fold changes) 5-aminopentanoic acid (metabolite 5-aminopentanoic acid, log2 fold change): 0.0000 | Log2(fold changes) 5-methyl-THF (metabolite 5-methyl-THF, log2 fold change): 0.0000 | Log2(fold changes) 5-phosphoribosyl-1-pyrophosphate (metabolite 5-phosphoribosyl-1-pyrophosphate, log2 fold change): -0.7551 | Log2(fold changes) 6-phospho-D-gluconate (metabolite 6-phospho-D-gluconate, log2 fold change): -0.0328 | Log2(fold changes) ADP-D-glucose (metabolite ADP-D-glucose, log2 fold change): 0.0037 | Log2(fold changes) Acetyl-glycine (metabolite Acetyl-glycine, log2 fold change): 0.0000 | Log2(fold changes) Acetyllysine (metabolite Acetyllysine, log2 fold change): 0.0000 | Log2(fold changes) Aminoadipic acid (metabolite Aminoadipic acid, log2 fold change): 0.0000 | Log2(fold changes) CDP (metabolite CDP, log2 fold change): -0.4119 | Log2(fold changes) CDP-choline (metabolite CDP-choline, log2 fold change): 0.2972 | Log2(fold changes) CDP-ethanolamine (metabolite CDP-ethanolamine, log2 fold change): 0.0000 | Log2(fold change) of CMP (metabolite CMP): 0.3976 | Log2(fold change) of CTP (metabolite CTP): -0.2057 | Log2(fold changes) Citraconic acid (metabolite Citraconic acid, log2 fold change): 0.0000 | Log2(fold change) of D-glucarate (metabolite D-glucarate): 0.0159 | Log2(fold change) of D-gluconate (metabolite D-gluconate): -0.4042 | Log2(fold change) of D-glucosamine-1/6-phosphate (metabolite D-glucosamine-1/6-phosphate): 0.0000 | Log2(fold change) of D-sedoheptulose-1/7-phosphate (metabolite D-sedoheptulose-1/7-phosphate): 0.3067 | Log2(fold change) of DL-Pipecolic Acid (metabolite DL-Pipecolic Acid): 0.0000 | Log2(fold change) of DLH (metabolite DLH): 0.8439 | Log2(fold change) of DLS (metabolite DLS): 0.5887 | Log2(fold change) of Decanoyl-CoA (metabolite Decanoyl-CoA): 0.0000 | Log2(fold change) of EV (metabolite EV): 0.0000 | Log2(fold change) of FAD (metabolite FAD): 0.8383 | Log2(fold change) of FMN (metabolite FMN): 0.1361 | Log2(fold change) of G3P/DHAP (metabolite G3P/DHAP): 0.0585 | Log2(fold change) of GDP (metabolite GDP): -0.5545 | Log2(fold change) GMP (metabolite GMP): -0.0052 | Log2(fold change) GTP (metabolite GTP): -0.2843 | Log2(fold change) HVDD (metabolite HVDD): 0.7226 | Log2(fold change) Hexose (metabolite Hexose): 0.3496 | Log2(fold change) Hydroxyisocaproic acid (metabolite Hydroxyisocaproic acid): 0.0000 | Log2(fold change) IDP (metabolite IDP): 0.0000 | Log2(fold change) IMP (metabolite IMP): 0.0372 | Log2(fold change) Inositol (metabolite Inositol): 0.0000 | Log2(fold change) Isopentyl-PP (metabolite Isopentyl-PP): 0.0000 | Log2(fold change) L-arginino-succinate (metabolite L-arginino-succinate): -0.1932 | Log2(fold change) LD (metabolite LD): 0.8668 | Log2(fold change) Myristoyl/tetradecanoyl-CoA (metabolite Myristoyl/tetradecanoyl-CoA): 0.0000 | Log2(fold change) N-Acetyl-L-alanine (metabolite N-Acetyl-L-alanine): -0.6716 | Log2(fold change) N-acetyl-L-ornithine (metabolite N-acetyl-L-ornithine): 0.0000 | Log2(fold change) N-acetyl-glucosamine-1/6-phosphate (metabolite N-acetyl-glucosamine-1/6-phosphate): -0.1039 | Log2(fold change) N-acetyl-glutamate (metabolite N-acetyl-glutamate): -0.3449 | Log2(fold change) N-acetyl-glutamine (metabolite N-acetyl-glutamine): -1.3853 | Log2(fold change) N-carbamoyl-L-aspartate (metabolite N-carbamoyl-L-aspartate): -0.1955 | Log2(fold change) NAD+ (metabolite NAD+): -0.0358 | Log2(fold change) NADH (metabolite NADH): 1.5825 | Log2(fold change) NADP+ (metabolite NADP+): 0.0717 | Log2(fold change) NADPH (metabolite NADPH): 1.3580 | Log2(fold change) O-acetyl-L-serine (metabolite O-acetyl-L-serine): 0.0000 | Log2(fold change) Octoluse 8/1P (metabolite Octoluse 8/1P): 0.5111 | Log2(fold change) Octoluse Bisphosphate (metabolite Octoluse Bisphosphate): -0.3203 | Log2(fold change) PD (metabolite PD): -0.9637 | Log2(fold change) PE (metabolite PE): 0.0520 | Log2(fold change) PEE (metabolite PEE): 0.3860 | Log2(fold change) PEEK (metabolite PEEK): 1.9585 | Log2(fold change) PVNF (metabolite PVNF): 0.5887 | Log2(fold change) Pyroglutamic acid (metabolite Pyroglutamic acid): -0.2368 | Log2(fold change) Pyrophosphate (metabolite Pyrophosphate): 0.0000 | Log2(fold change) Ribose-5-phosphate (metabolite Ribose-5-phosphate): -0.2008 | Log2(fold change) S-adenosyl-L-homocysteine (metabolite S-adenosyl-L-homocysteine): 0.3352 | Log2(fold change) S-adenosyl-L-methioninamine (metabolite S-adenosyl-L-methioninamine): 0.0000 | Log2(fold change) S-adenosyl-L-methionine (metabolite S-adenosyl-L-methionine): 0.0000 | Log2(fold change) S-methyl-5'-thioadenosine (metabolite S-methyl-5'-thioadenosine): 0.2721 | Log2(fold change) SD (metabolite SD): -0.1612 | Log2(fold change) SDL (metabolite SDL): 0.5371 | Log2(fold change) SID (metabolite SID): 0.0000 | Log2(fold change) Sedoheptulose bisphosphate (metabolite Sedoheptulose bisphosphate): 0.0035 | Log2(fold change) Thiamine pyrophosphate (metabolite Thiamine pyrophosphate): -0.0731 | Log2(fold changes) UDP-D-glucose (metabolite UDP-D-glucose, log2 fold change): 0.0091 | Log2(fold changes) UDP-D-glucuronate (metabolite UDP-D-glucuronate, log2 fold change): -0.1151 | Log2(fold changes) UDP-N-acetyl-glucosamine (metabolite UDP-N-acetyl-glucosamine, log2 fold change): -0.0367 | Log2(fold changes) UDP (metabolite UDP, log2 fold change): -0.5308 | Log2(fold changes) UMP (metabolite UMP, log2 fold change): 0.0364 | Log2(fold changes) UTP (metabolite UTP, log2 fold change): -0.1207 | Log2(fold changes) VD (metabolite VD, log2 fold change): 0.0000 | Log2(fold changes) Xanthurenic acid (metabolite Xanthurenic acid, log2 fold change): 0.0000 | Log2(fold changes) a-ketoglutarate (metabolite a-ketoglutarate, log2 fold change): -0.4532 | Log2(fold changes) acetyl-CoA (metabolite acetyl-CoA, log2 fold change): -0.3299 | Log2(fold changes) acetyl-aspartate (metabolite acetyl-aspartate, log2 fold change): -0.2105 | Log2(fold changes) acetylphosphate (metabolite acetylphosphate, log2 fold change): 0.0000 | Log2(fold changes) aconitate (metabolite aconitate, log2 fold change): -0.2855 | Log2(fold changes) adenine (metabolite adenine, log2 fold change): 0.0812 | Log2(fold changes) adenosine 5'-phosphosulfate (metabolite adenosine 5'-phosphosulfate, log2 fold change): 0.0000
